From PMC8397425, “A Strategy to Conjugate Bioactive Fragments to Cytotoxic Diiron Bis(cyclopentadienyl) Complexes” (Organometallics, 2021)

Tests used:
[1] = Solubility in D2O by 1H NMR; format: physicochemical; details: Me2SO2 internal standard, T = 21 °C
Description: The solubility of the complexes in D2O was assessed using ^1H NMR spectroscopy (see Table 1 and the Experimental Section for details). […] Data from the literature for the related nonfunctionalized complexes [2′,3′]CF3SO3 are compiled in Table 1 for comparison.[11] The octanol–water partition coefficients (Log Pow) were measured using a UV–vis method and fall within the −0.2 to +1.2 range (Table 1). […] For instance, Log Pow values of 1.07 and 0.65 are obtained for the geometric isomers [9]CF3SO3 and [10]CF3SO3, respectively.

[2] = biological target: T1, bovine serum albumin (BSA) (Bos taurus, UniProt P02769); experiment: BSA fluorescence quenching titration; format: binding; details: pH 7.0 buffer, NaCl 0.1 M, NaCac 0.01 M; for Log K (binding constant, compound/BSA): 1:1 model, 25 °C
T1 construct: bovine serum albumin (BSA, lyophilized powder, crystallized, ≥98.0%); purchased Merck
Description: The interaction of [4]CF3SO3 and [9]CF3SO3 with bovine serum albumin (BSA) as a model protein was also explored. The addition of the metal complex to the protein in pH buffer solution (pH 7.0 buffer; NaCl 0.1 M, NaCac 0.01 M) produced a quenching of the intrinsic fluorescence emission of the latter. A data fit, according to the Stern–Volmer equation,[11] provided quenching constants (KSV) values equal to ca. 3.4 × 10^4 for both systems, indicative that a binding event occurs (Figure S1).[32] […] More precisely, the binding constant (10^6) appears to be high enough to ensure adduct formation but also weak enough to release the complex once the biotarget is reached; this is assumed to be the optimal condition for BSA-driven transport and diffusion of a drug.[34]
Ethidium bromide (EB, ≥98.0%), bovine serum albumin (BSA, lyophilized powder, crystallized, ≥98.0%), and natural double-stranded DNA from calf thymus (DNA, lyophilized powder, Na^+ salt in the form of fibers) were purchased from Merck, while anhydrous guanosine 5′-monophosphate disodium salt (Na2[GMP], >98.0%) was purchased from TCI Chemicals. Prior to use, DNA was sonicated to ca. 500 base pair length (MSE-Sonyprep sonicator, 7 cycles of 10 s sonication + 20 s pause at an amplitude of 14 μm, solution kept in ice bath—the final length was checked by agarose gel electrophoresis tests on the sample using a 100 bp DNA ladder) to produce stock solutions in water (ca. 2 mM). Stock solutions of EB and BSA were prepared by weighing directly in the buffer (NaCl 0.1 M, NaCac 0.01M, pH 7.0—NaCac is sodium cacodylate). […] Molar concentrations of solutions of EB (CEB), BSA (CBSA), and DNA (CDNA) were determined by absorbance measurements (εEB^480 nm = 5700 M^–1 cm^–1; εBSA^278 nm = 44000 M^–1 cm^–1; εDNA^260 nm = 13200 M^–1 cm^–1 for a concentration expressed in base pairs). […] In EB/DNA exchange experiments, EB was added to DNA until the fluorescence emission at λex = 520 nm/λem = 595 nm (diagnostic wavelengths for the DNA-intercalated EB only) started to reach the plateau (CEB = 5.60 × 10^–5 M, CDNA = 1.15 × 10^–4 M). […] The total maximum amount of DMSO was checked (<3%) as well as the metal complex absorbance at the set wavelengths (A < 0.05 to ensure negligible inner filter effects). Note that a blank test was carried out by adding DMSO to the EB/DNA mixture, in order to quantify fluorescence changes due only to dilution/solvent effects. For BSA fluorescence titrations, the working solution of the metal complex (4.42 × 10^–5 M for [4]CF3SO3, 4.59 × 10^–5 M for [9]CF3SO3, both in the buffer) was added to a 3.34 × 10^–7 M BSA solution in the buffer (λex = 280 nm, λem = 345 nm, dilution from stock such that the DMSO content is negligible). […]

[3] = tested on: Human Ovarian Carcinoma Cisplatin Resistant (A2780cisR) cell line; experiment: MTT cytotoxicity, A2780cisR; format: cell-based; details: 72 h exposure, mean ± SD
Description: Human ovarian carcinoma (A2780 and A2780cisR) cell lines were obtained from the European Collection of Cell Cultures. The Human Embryonic Kidney 293T (HEK 293T) cell line was obtained from the ATCC (Sigma, Buchs, Switzerland). Penicillin–streptomycin, RPMI 1640 GlutaMAX (where RPMI = Roswell Park Memorial Institute), and DMEM GlutaMAX media (where DMEM = Dulbecco’s modified Eagle medium) were obtained from Life Technologies, and fetal bovine serum (FBS) was obtained from Sigma. The cells were cultured in RPMI 1640 GlutaMAX (A2780 and A2780cisR) and DMEM GlutaMAX (HEK 293T) media containing 10% heat-inactivated FBS and 1% penicillin–streptomycin at 37 °C and CO2 (5%). The A2780cisR cell line was routinely treated with cisplatin (2 μM) in the media to maintain cisplatin resistance. The cytotoxicity was determined using the 3-(4,5-dimethyl-2-thiazolyl)-2,5-diphenyl-2H-tetrazolium bromide (MTT) assay.[42] Cells were seeded in flat-bottomed 96-well plates as a suspension in a prepared medium (100 μL aliquots and approximately 4300 cells/well) and preincubated for 24 h. Stock solutions of compounds were prepared in DMSO and were diluted in the medium. The solutions were sequentially diluted to give a final DMSO concentration of 0.5% and a final compound concentration range of 0–200 μM. Cisplatin was tested as a positive (0–100 μM) control. The compounds were placed in the preincubated 96-well plates in 100 μL aliquots, and the plates were incubated for a further 72 h. MTT (20 μL, 5 mg/mL in Dulbecco’s phosphate buffered saline) was placed in the cells, and the plates were incubated for a further 4 h. The culture medium was aspirated, and the purple formazan crystals, formed by the mitochondrial dehydrogenase activity of vital cells, were dissolved in DMSO (100 μL/well). The absorbance of the resulting solutions, directly proportional to the number of surviving cells, was quantified at 590 nm using a SpectroMax M5e multimode microplate reader (using SoftMax Pro software, version 6.2.2). The percentage of surviving cells was calculated from the absorbance of wells corresponding to the untreated control cells. The reported IC50 values are based on the means from two independent experiments, each comprising four tests per concentration level.

T1 sequence (P02769 25-607): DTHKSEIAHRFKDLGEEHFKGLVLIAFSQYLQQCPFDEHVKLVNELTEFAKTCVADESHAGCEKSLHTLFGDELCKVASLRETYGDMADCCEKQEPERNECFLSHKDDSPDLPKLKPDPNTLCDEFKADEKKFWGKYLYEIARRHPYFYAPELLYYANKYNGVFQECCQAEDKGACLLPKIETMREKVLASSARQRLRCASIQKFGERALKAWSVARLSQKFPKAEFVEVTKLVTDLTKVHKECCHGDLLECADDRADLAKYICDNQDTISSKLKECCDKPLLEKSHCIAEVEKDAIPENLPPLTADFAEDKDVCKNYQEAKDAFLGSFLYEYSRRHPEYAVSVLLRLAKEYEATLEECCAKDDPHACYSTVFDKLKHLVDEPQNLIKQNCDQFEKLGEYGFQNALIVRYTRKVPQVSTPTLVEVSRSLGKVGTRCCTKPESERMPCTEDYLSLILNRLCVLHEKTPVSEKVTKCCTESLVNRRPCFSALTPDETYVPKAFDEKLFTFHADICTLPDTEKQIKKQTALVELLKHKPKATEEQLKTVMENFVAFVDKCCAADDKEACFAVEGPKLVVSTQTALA

solubility [1]	Log K (binding constant, compound/BSA) [2]	Stern–Volmer quenching constant (KSV) [2]	Substance	IC50 [3]
<1 × 10^–4 mol L^–1	6.5 ± 0.1	ca. 3.4 × 10^4	[Fe2Cp2(CO)(μ-CO){μ-η^1:η^3-Cγ(3-C6H4NHC(=O)(CH2)3C6H4N(CH2CH2Cl)2)CβHCαNMe2}]CF3SO3 [[9]CF3SO3]	3.8 ± 0.3 µM
<1 × 10^–4 mol L^–1	5.9 ± 0.1	ca. 3.4 × 10^4	[Fe2Cp2(CO)(μ-CO){μ-η^1:η^3-Cγ(3-C6H4OC(=O)C6H4OC(=O)Me)CβHCαNMe(Xyl)}]CF3SO3 [[4]CF3SO3]	2.6 ± 0.4 µM
